Here are results for nine molecules from patent publication US12516055B2, “Protein kinase inhibitors and uses thereof for the treatment of diseases and conditions” (University of Houston System, priority 2019, dated 2026).

The test system of data set [1] is LPS/IDN-treated murine RAW264.7 macrophages. Description: Protection from necroptosis in LPS/IDN-treated RAW264.7 macrophages (CellTiter-Glo). The format is cell-based. For orientation: Cellular ATP, detected with luciferase, serves as a proxy for viable cell number.
Experimental: (§2) IC50/LD50 values were determined for inhibition of recombinant RIPK3, inhibition of necroptosis in LPS/IDN-treated murine RAW264.7 macrophages and TNF/IDN-treated human Hela cells expressing RIPK3, RIPK3 binding by the inhibitors in live cells (NanoBRET assay), and induction of RIPK3-dependent apoptosis (i.e., on-target toxicity). Assays were performed using ADPGlo (kinase assay), CellTiter-Glo (viability), and NanoBRET (target engagement) assays.
(§3) After incubation with drugs, 15 μL of CellTiter-Glo reagent is added to the wells and incubated for 10 min Luminescence signals are determined using appropriate luminescence plate-reader (typical integration time 0.3 sec).
The test system of data set [2] is TNF/IDN-treated human Hela cells expressing RIPK3. Description: Protection from necroptosis in TNF/IDN-treated Hela-RIPK3 cells (CellTiter-Glo). The format is cell-based.
Experimental: as §2, §3
Data set [3] has as its system Hela-RIPK3 cells. To be noted: Mandal et al. 2014, one cell under both toxicity columns; cited from earlier work.
The subject of data set [4] is RIPK3 and MLKL phosphorylation. Put plainly: RIPK3 and MLKL phosphorylation in RAW264.7 macrophages (Western blot, FIG. 31). The class given is cell-based. To be noted: LPS 10 ng/ml + IDN6556 20 μM. Here is the method:
Necroptosis was induced by the combination of LPS (10 ng/ml) and pan-caspase inhibitor IDN6556 (20 μM). Note that LPS is a TLR4 ligand that, like TNF, can activate RIPK3 (and necroptosis) in the presence of a caspase inhibitor. The asterisk indicates a non-specific band sometimes see in pMLKL immunoblots. Samples are subjected to SDS-PAGE gele electrophoresis and Western blotting using RIPK3, phospho-Thr231/Ser232-RIPK3, MLKL and phospho-Ser345-MLKL antibodies (Abcam).

In the next data set the test system is NOD2 cellular signaling. Put plainly: NOD2 signaling assay in HEK-Blue cells (NFkB-SEAP reporter). The class given is cell-based. The following applies: Homo sapiens, L18-MDP stimulated, read-out: EC50 HEK Blue (μM) RIPK2. As for the experimental part:
HEK-Blue cells expressing human NOD2 and NFkB-SAEP reporter (Invivogen) are seeded into 96 well clear plates at 7.5×10^3 cells per well in 100 μL of DMEM media supplemented with 10% FBS and 1% antibiotic-antimycotic mix. Cells are allowed to attach for 48 h in 5% CO2 tissue culture incubator at 37° C. On the morning of the experiment, media in the wells is replaced with 100 μL of HEK-Blue detection media (Invivogen). Cells are treated with the inhibitors, diluted in DMSO (0.5 μL per well) for […] in 5% CO2 tissue culture incubator at 37° C. After that, cells are stimulated by the addition of 1 ng/well L18-MDP (Invivogen). Cells are incubated in 5% CO2 tissue culture incubator at 37° C. for 8 h and absorbance, corresponding to the SEAP in the media, is determined in Wallac3V plate reader (Perkin Elmer). Inhibition, %=(1−((sample signal-unstimulated and DMSO treated cells)/(L18−MDP stimulated and DMSO treated cells−unstimulated and DMSO treated cells)))*100.
(§1) Prepared compounds were evaluated for their ability to inhibit RIPK2 and ALK2 enzyme activities and NOD2 cellular signaling using the methods described above.

The target in a further data set is T1, human ALK2 (Homo sapiens, UniProt Q04771).
T1 sequence (Q04771 21-509): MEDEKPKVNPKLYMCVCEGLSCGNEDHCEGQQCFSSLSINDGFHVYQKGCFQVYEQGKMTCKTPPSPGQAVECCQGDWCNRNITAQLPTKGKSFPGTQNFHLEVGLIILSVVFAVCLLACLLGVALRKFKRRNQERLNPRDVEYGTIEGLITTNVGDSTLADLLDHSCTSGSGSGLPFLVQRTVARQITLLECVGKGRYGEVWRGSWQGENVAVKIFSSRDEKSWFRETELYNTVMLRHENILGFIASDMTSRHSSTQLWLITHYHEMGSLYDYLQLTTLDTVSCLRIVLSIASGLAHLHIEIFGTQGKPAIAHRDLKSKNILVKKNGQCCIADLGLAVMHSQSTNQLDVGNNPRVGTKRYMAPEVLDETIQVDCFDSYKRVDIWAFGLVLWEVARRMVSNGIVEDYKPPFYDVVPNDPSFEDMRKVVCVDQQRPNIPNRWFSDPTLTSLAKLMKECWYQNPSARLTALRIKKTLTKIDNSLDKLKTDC
Put plainly: ALK2 enzyme assay (33P-casein). To be noted: 10 μM ATP. The class given is biochemical. Here is the method:
Enzyme inhibitory activity was evaluated in a standard kinase enzyme assay by incubating human ALK2 with the protein substrate casein (1 mg/mL) and γ-^33ATP (10 μM) in the presence of various concentrations of test compounds (10 nM 100 μM). After 30 min the amount of ^33P-casein was determined.
as §1

The target of data set [5] is T2, RIPK3 (Homo sapiens, UniProt Q9Y572). Description: Inhibition of recombinant RIPK3 (ADP-Glo kinase assay). The format is biochemical. To be noted: recombinant RIPK3, ADPGlo; read-out: Inhibition of RIPK3, RIPK3 protein IC50. A general note: ADP-Glo first removes unused ATP, then detects ADP through luciferase.
T2 sequence (Q9Y572 whole entry, species assumed): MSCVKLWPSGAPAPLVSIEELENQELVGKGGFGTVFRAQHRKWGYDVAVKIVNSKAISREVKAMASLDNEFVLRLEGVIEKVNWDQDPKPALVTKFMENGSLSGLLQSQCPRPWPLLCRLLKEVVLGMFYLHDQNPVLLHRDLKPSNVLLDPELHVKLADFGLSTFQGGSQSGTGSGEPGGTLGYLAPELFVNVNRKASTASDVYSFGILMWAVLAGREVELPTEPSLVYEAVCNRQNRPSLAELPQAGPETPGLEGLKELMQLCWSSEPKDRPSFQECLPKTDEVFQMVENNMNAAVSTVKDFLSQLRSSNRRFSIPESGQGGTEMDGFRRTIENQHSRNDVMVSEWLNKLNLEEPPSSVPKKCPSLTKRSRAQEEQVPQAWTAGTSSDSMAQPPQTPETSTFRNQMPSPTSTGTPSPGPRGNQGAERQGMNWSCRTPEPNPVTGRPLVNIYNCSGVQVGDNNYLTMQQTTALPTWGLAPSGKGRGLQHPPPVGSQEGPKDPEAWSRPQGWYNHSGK
Experimental: as §2
(§4) For ADP-Glo assays, recombinant RIPK3 protein (20 ng per reaction) is diluted in the reaction buffer consisting of 50 mM HEPES, pH 7.5, 50 mM NaCl, 30 mM MgCl2, 1 mM DTT, 0.05% bovine serum albumin (BSA), 0.02% CHAPS. Diluted protein is added to low volume white 384 well plates (2 μL/well). […] Reactions are initiated by the addition of 2 μL of 100 μM ATP in the reaction buffer. Plates are sealed with plastic coverslips and incubated at room temperature for 4 h. Reactions are stopped by the addition of 5 μL of ADP-Glo reagent (Promega) and ADP generation reaction is performed for 40 mM at room temperature Luminescence signal is generated by the addition of 10 μL of Kinase detection reagent (Promega) for 30 mM at room temperature Luminescence signals are determined using appropriate luminescence plate-reader (typical integration time 0.3-1 sec). To calculate percent inhibition, average background signal is subtracted from test well and maximal signal wells. Inhibition, %=(1−(test signal/maximal signal))*100. The percent inhibition at a specified concentration is determined or IC50 values are calculated based on a dose range of inhibitor concentrations using non-linear regression in GraphPad Prism software. […] After incubation with drugs, 15 μL of CellTiter-Glo reagent is added to the wells and incubated for 10 min Luminescence signals are determined using appropriate luminescence plate-reader (typical integration time 0.3 sec). To calculate percent viability, Viability, %=(1−(test signal/maximal viability in the untreated wells))*100.
Data set [6] deals with T2, RIPK3. Put plainly: RIPK3 binding in live HEK cells (NanoBRET target engagement). The arrangement: expressed in transfected cells; host or cells: HEK cells. Background: BRET reads energy transfer from a luciferase to a nearby fluorophore.
Experimental: as §2
The test system of data set [7] is Hela-RIPK3 cells.
Experimental: as §2
For ADP-Glo assays, recombinant RIPK3 protein (20 ng per reaction) is diluted in the reaction buffer consisting of 50 mM HEPES, pH 7.5, 50 mM NaCl, 30 mM MgCl2, 1 mM DTT, 0.05% bovine serum albumin (BSA), 0.02% CHAPS. Diluted protein is added to low volume white 384 well plates (2 μL/well). […] Reactions are stopped by the addition of 5 μL of ADP-Glo reagent (Promega) and ADP generation reaction is performed for 40 mM at room temperature Luminescence signal is generated by the addition of 10 μL of Kinase detection reagent (Promega) for 30 mM at room temperature Luminescence signals are determined using appropriate luminescence plate-reader (typical integration time 0.3-1 sec). […] The percent inhibition at a specified concentration is determined or IC50 values are calculated based on a dose range of inhibitor concentrations using non-linear regression in GraphPad Prism software. […]
[8] abbreviates: Mus musculus, LPS/IDN-treated RAW264.7 cells, read-out: Protection from necroptosis, RAW264.7 cells IC50.

Where two headings read alike, the source gives them in different places. Marks after values point to notes of the source that are not given here.

Experimental for RAW264.7 cells: as §2, §4

Consider `CC(C)S(=O)(=O)c1ccc2nccc(Nc3ccc4scnc4c3)c2c1` [GSK′872, reference compound], for which the IC50 – broadly, the concentration that gives 50% inhibition – was 1290 nM in data set [1] (LPS/IDN-treated RAW264.7 cells, read-out: Protection from necroptosis, RAW264.7 cells IC50) and 3210 nM in [2]. The “Toxicity LD50 (published value)” value with Hela-RIPK3 cells [3] is ~10* μM. Besides, the “Block of RIPK3 and MLKL phosphorylation” value in data set [4] was “block RIPK3 and MLKL phosphorylation”.

For the molecule `Cn1c(=O)c(-c2ccccc2Cl)cc2cnc(Nc3cccc(N4CCS(=O)(=O)CC4)c3)cc21` [UH15-28, 3-(2-chlorophenyl)-7-((3-(1,1-dioxidothiomorpholino)phenyl)amino)-1-methyl-1,6-naphthyridin-2(1H)-one], the EC50 (commonly the midpoint of the concentration-response curve) with NOD2 cellular signaling was determined as 0.07 µM.

On to `CN1CCN(c2cccc(Nc3cc4c(cn3)cc(-c3ccccc3Cl)c(=O)n4C)c2)CC1` [UH15-37, 3-(2-chlorophenyl)-1-methyl-7-((3-(4-methylpiperazin-1-yl)phenyl)amino)-1,6-naphthyridin-2(1H)-one], for which, in the data set with NOD2 cellular signaling, the EC50 came to 0.05 µM. The same molecule yielded an IC50 against human ALK2 of 32300 nM.

As to `CCN(CC)CCOc1ccc(Nc2ncc3cc(-c4ccccc4)c(=O)n(CC)c3n2)cc1` [compound 4], the IC50 at RIPK3 [5] amounted to 300 nM; in data set [1] (Mus musculus, RAW264.7, read-out: Protection from necroptosis, RAW264.7 cells IC50), 180 nM. In the data set with RAW264.7 cells, the “Toxicity, RAW264.7 cells LD50” value was 5.2 µM.

For the molecule `CCN(CC)CCOc1ccc(Nc2ncc3cc(-c4c(Cl)cccc4Cl)c(=O)n(CCOC)c3n2)cc1` [compound 6], the IC50 at RIPK3 [6] and at RIPK3 [5] was 20 nM throughout.

For the molecule `CCN(CC)CCOc1ccc(Nc2ncc3cc(-c4c(Cl)cccc4Cl)c(=O)n(CC(C)C)c3n2)cc1` [compound 10], on RIPK3 [5], the IC50 turned out to be 80 nM.

Consider `Cc1ccc(-c2cc3cnc(Nc4cccc(S(C)(=O)=O)c4)nc3n(C)c2=O)c(Cl)c1` [compound 20], for which the IC50 on RIPK3 [6] was 950 nM; at RIPK3 [5], 280 nM.

With `CN1CCN(c2cccc(Nc3cc4c(cn3)cc(-c3ccccc3Cl)c(=O)n4C)c2)CC1` [compound 37], the IC50 on RIPK3 [6] came to 80 nM; on RIPK3 [5], 50 nM; in data set [1] (setting [8]), 250 nM; in data set [2] (Homo sapiens), 60 nM. Besides, in the data set with Hela-RIPK3 cells [7], the “Toxicity, Hela-RIPK3 cells LD50” value is >10 µM. In the data set on RAW264.7 cells, the “Toxicity, RAW264.7 cells LD50” value is >10 µM.

Take `CN1CCN(c2cccc(Nc3cc4c(cn3)cc(-c3cccc(O)c3)c(=O)n4C)c2)CC1` [compound 38]: the IC50 on RIPK3 [6] came out at 20 nM; at RIPK3 [5] it was 10 nM; in [1] (setting [8]), 20 nM. Besides, the “Toxicity, RAW264.7 cells LD50” value in the data set with RAW264.7 cells was >10 µM.
